Test results taken from patent US7531575B2, “Method of modulating cellular activity and agents useful for same” (Eberhard-Karls-Universität Tübingin, priority 2002, dated 2009).

Experiments:
Type in all cases: cell-based, murine
MARCKS = assay: phospho-MARCKS immunoblot in N9 microglia; conditions: N9 cells, co-exposed to TNL (pre-incubation 1 hr)
Excerpt: (§1) TNL was a generous gift of Kissei Pharmaceuticals, LPC (Escherichia coli, 0127:BS), phorbol 12-myristate 13-acetate (PMA) and dexamethasone (DEX) were obtained from Sigma, BAY 11-7082 (BAY), NF-κB SN50 inhibitory peptide (SN50), GF 109203X (GFX) and rottlerin (ROT) were purchased from Biomol. PD098059 (PD) was obtained from Calbiochem. Purified murine interferon-γ (IFN-γ) was purchased from Roche Diagnostics. N9 murine microglial cells were a kind gift from P. Ricciardi-Castagnoli (Righi, M. et al. 1989 supra). Cells were cultured in Dulbecco's modified Eagle's medium (DMEM) supplemented with 10% fetal calf serum (FCS), 2 mM glutamine, penicillin (100 unit/mL) and streptomycin (100 μg/mL) and maintained at 37° in an atmosphere of 5% CO2. Viability was assessed by crystal violet staining.
(§2) For the preparation of whole cell lysates, the cells were lysed in 0.1 M Tris-HCl (pH 7.2) containing 0.1% NP40, 0.1 mM EDTA and 5 μg/mL phenylmethylsulphonyl fluoride. Twenty micrograms protein was separated by 10-12% SDS-PAGE and electroblotted on nitrocellulose membrane. Equal loading was controlled by Ponceau S staining. […]

ERK-1 = assay: phospho-ERK-1/2 immunoblot, LPS-stimulated N9 microglia: ERK-1; conditions: N9 cells, LPS 10 μg/mL 10 min, TNL pre-incubation 1 hr
Excerpt: as §1, §2

iNOS mRNA = iNOS mRNA Northern blot, IFN-γ-stimulated N9 microglia; conditions: N9 cells, IFN-γ 200 u ml, 24 h, tranilast 300 μM
Method: (§3) Tranilast was a generous gift of Kissei Pharmaceuticals (Nagano, Japan). Murine recombinant IFN-γ was purchased from Boehringer (Mannheim, Germany). Dexamethasone (DEX) was obtained from Sigma (Deisenhofen, Germany). N9 murine microglial cells were a kind gift from P. Ricciardi-Castagnoli (Milano, Italy) (Righi, M., Mori, L., De Libero, G., Sironi, M., Biondi, A., Mantovani, A., Donini, S. D. and Ricciardi-Castagnoli, P. Eur J Immunol 19(8):1443-1448, 1989). The cells were cultured in Dulbecco's modified Eagle's medium (DMEM) supplemented with 10% foetal calf serum (FCS), 2 mM glutamine and penicillin ([…])/streptomycin (100 μg ml), and maintained at 37° C. in an atmosphere of 5% CO2. Viability was assessed by crystal violet staining.
Total RNA was isolated using the RNeasy kit (Qiagen, Hilden, Germany). Total RNA ([…]) was separated on 1.2% agarose gels and blotted onto nylon membranes (Amersham). The filters were hybridized according to standard procedures (Platten, M., Wild-Bode, C., Wick, W., Leitlein, J., Dichgans, J., and Weller, M., Int. J. Cancer, 93:53-61, 2001) with a ^32P-labelled murine cDNA probe for iNOS. For the generation of the iNOS probe, N9 cells were stimulated with IFN-γ ([…]) for 24 h. […]

iNOS [1] = assay: iNOS protein immunoblot, IFN-γ-stimulated N9 microglia; conditions: N9 cells, IFN-γ 200 u ml, 24 h, tranilast 300 μM
Method: as §3
(§4) For the preparation of whole cell lysates, the cells were rinsed in phosphate-buffered saline (PBS), harvested, centrifuged at 1200×g, lysed in 0.1 M TRIS-HCl (pH 7.2) containing 0.1% NP40, 0.1 mM EDTA and 5 μg ml PMSF for 40 min on ice, and centrifuged at 10,000×g for 10 min. Protein concentration was determined using Biorad reagents with photometric analysis. Proteins (20 μg lane) were separated by 10-12% SDS-PAGE and electroblotted on nitrocellulose. qual protein loading was controlled by Ponceau S staining. […]

IκBα = assay: phospho-IκBα immunoblot, IFN-γ-stimulated N9 microglia; conditions: N9 cells, IFN-γ 200 u ml, tranilast 30-300 μM, 4 h preincubation
Method: as §3, §4

iNOS [2] = assay: iNOS activity by Griess assay (nitrite formation), LPS-stimulated N9 microglia; conditions: N9 cells, LPS 10 μg/mL, 48 hr, concentration series
Excerpt: as §1
iNOS activity was assessed by the Griess assay (Platten, M., Wick, W., Wischhusen, J. and Weller, M. Br J Pharmacol 134(6):1279-1284, 2001). Briefly, conditioned supernatant was incubated with an equal volume of Griess reagent containing 1% sulphanilamide, 0.1% naphthylethylenediamine dihydrochloride and 2.5% H3PO4 (Green, L. C., Wagner, D. A., Glogowski, J., Skipper, P. I., Wishnok, J. S, and Tannenbaum, S. R. Anal. Biochem., 126:131-138, 1982) for 5 min. at room temperature. The absorbance was measured at 546 nm. NaNO2 diluted in DMEM served as a standard. To control for cell number, the cells were stained with crystal violet. iNOS activity is expressed as nitrite accumulated in 48 hr/10^5 cells.

p38 MAPK = assay: phospho-p38 immunoblot, LPS-stimulated N9 microglia; conditions: N9 cells, LPS 10 μg/mL 10 min, TNL pre-incubation 1 hr
Excerpt: as §1, §2

Question: For COc1ccc(/C=C/C(=O)Nc2ccccc2C(=O)O)cc1OC [tranilast, 2-[[3-(3,4-dimethoxyphenyl)-1-oxo-2-propenyl]amino]benzoic acid], which MARCKS phosphorylation (MARCKS) is on record?
Answer: The MARCKS phosphorylation was “inhibited”.

Question: What about the “phospho-ERK-1 protein level after LPS” value (ERK-1) of the same compound?
Answer: The value was “remained unchanged”.

Question: What about the “IFN-γ-induced iNOS mRNA expression” value (iNOS mRNA) of the same compound?
Answer: The value was “greatly suppressed”.

Question: What about the “IFN-γ-induced iNOS protein expression” value (iNOS [1]) of the same compound?
Answer: The value was “greatly suppressed”.

Question: What about the “IκB phosphorylation in response to IFN-γ” value (IκBα) of the same compound?
Answer: Its value is “concentration-dependent suppression”.

Question: And the “nitrite formation after LPS” value (iNOS [2])?
Answer: The value was “concentration-dependent decrease”.

Question: What about the “cellular phospho-p38 levels after LPS” value (p38 MAPK) of the same compound?
Answer: The value was “did not alter”.
